Data reported in patent US12714698B2, “Compositions and methods for treating or preventing dermal disorders” (Drexel University, priority 2015, dated 2026).
Like-named read-outs stand apart in the source and are kept apart here.

Experiments:
[1] = test system: ribosomal S6 protein and MDM2; experiment: Immunoblot of ribosomal S6 protein and MDM2 phosphorylation (mTORC1/p70S6K signaling); assay type: cell-based, human
Protocol: (§1) Cell culture experiments utilizing NRTIs were of the following design. Cultures of either human lung or cardiac fibroblasts were cultivated according to standard culture protocols for these cells (Cristofalo, et al., Journal of Tissue Culture Methods 1980, 6:117-121). Parallel sets of cultures were maintained in normal growth media or in normal growth media with the addition of 1 nM rapamycin. Cultures were maintained with 1 nM rapamycin (Enzo Biologicals) for two weeks before exposure to NRTIs. Cell cultures were exposed to NRTIs at indicated concentrations in individual experiments (generally 10-20 μg/ml) for 7 days, with a change of media and fresh NRTIs at day 4. Mitochondrial measurements, bioanalyzer measurements, immunoblotting for protein expression and phosphorylation status, and assays for senescence were performed at the end of this 7-day period.
(§2) Cell culture reagents were from Cellgro, unless indicated. WI-38 fetal-lung primary human fibroblasts or human cardiac fibroblasts were grown in MEM supplemented with 10% fetal bovine serum, 1% L-glutamine, MEM vitamins, and MEM non-essential amino acids. Cells were maintained in a 37° C. in 5% CO2 incubator. For treatment studies, cells were treated with 1 nM rapamycin (Enzo Biologicals) for two weeks before treatment with NRTIs. Cells were maintained by trypsinization and reseeding at a cell density of 1×10^4/cm^2 every 7 to 10 days. Emtricitabine (FTC) and tenofovir disoproxil fumarate (TDF) were kindly provided by the NIH AIDS Research & Reference Reagent program. During the 7-day exposure to the NRTIs, the pharmacologic inhibitors PD98059 (10 μM, Santa Cruz Biotechnologies), BI-D1870, GW5074, and SB203580 (10 μM, Enzo Biologicals) were added to the culture medium either during the final 48 hours or for the final 2 hours depending upon the experiment. During the 7-day exposure to NRTIs, Trolox (500 μM) and N-acetylcysteine (100 μM, Acros Organics) were added every other day. Mito-Q (20 nM) and TPP (20 nM) were kindly provided by Dr. Brett Kaufmann at the University of Pennsylvania School of Veterinary Medicine. Vector and mt-catalase adenoviruses (MOI's 25, 50, and 75) were purchased from Gene Transfer Vector Core from the University of Iowa.
Cell protein extracts were prepared by extracting with radioimmunoprecipitation assay (RIPA) buffer containing a protease inhibitor cocktail (Sigma-Aldrich) and phosphatase inhibitors, NaF and sodium orthovanadate. Protein concentration was quantified using a bicinchoninic acid (BCA) assay (Pierce Biotechnology). Western blot analysis was performed using 15 to 30 μg of protein extracts that were run on SDS-PAGE and transferred onto nitrocellulose (Biorad) membranes. Blots were incubated with antibodies specific for: beta-actin (Sigma-Aldrich), TFAm, parkin, p16, phospho(S82)HSP27, HSP27 (Santa Cruz Biotechnologies), p53, 21, catalase, MDM2 (EMD Millipore), VDAC, phospho(S235/236)-ribosomal protein S6, ribosomal protein S6, phospho(S166)-MDM2, phospho(5473)-AKT, AKT, beta-tubulin (Cell Signaling), p62 (Enzo Biologicals), IL-6 (NeoBiolab), lamin B1, PINK1, and Mitoprofile Total OXPHOS Cocktail (complex I-NDUFB8 subunit, CII-SDHB subunit, […]2 subunit, and CIV-mitochondrial COX1 subunit) (Abcam) according to manufacturers' instructions. Western blots were visualized using IRDye 680 and 800 LI-COR secondary antibodies on a LI-COR Odyssey using LI-COR Odyssey software version 3.0 (LI-COR Biosciences). For co-immunoprecipitation, cell protein extracts were prepared in HNTG buffer containing a protease inhibitor cocktail and quantified using BCA assay. Protein extracts at the concentration of 0.5 mg were pre-cleared with protein A/G beads (Santa Cruz Biologicals) for 30 minutes. After centrifugation at 2,000 rpm for 5 minutes at 4° C., the supernatant was incubated with the primary antibody at manufacturer's recommended concentration overnight at 4° C. An IgG antibody (Cell Signaling) was used as a non-specific control.

[2] = test system: ribosomal S6 protein and MDM2; experiment: as above; assay type: cell-based, human; remark: listed apart in the source
[3] = test system: human cardiac fibroblasts; experiment: Mitochondrial membrane potential, mass, superoxide and total ROS by flow cytometry; assay type: cell-based; details: control cultures (no rapamycin) treated with scavenger during NRTI exposure
Protocol: as §1, §2
Mitochondrial membrane potential was detected by incubating cells with 25 nM TMRE (Molecular Probes). Mitochondrial mass was evaluated by incubating the cells with 100 nM Mitotracker Green FM (Molecular Probes). Mitochondrial superoxide anion levels were detected by incubating the cells with 5 μM MitoSox Red (Molecular Probes). Total cellular levels of ROS were detected by incubating the cells with 10 μM 2′,7′-dichlorofluoroscein diacetate (DCF-DA; Sigma-Aldrich) in 1% fetal bovine serumsupplemented MEM and washing twice with Krebs Ringer phosphate glucose buffer (145 mM NaCl, 5.7 mM NaH2PO4, 4.86 mM KCL, 0.54 mM CaCl2), 1.22 mM MgSO4, and 5.5 mM glucose) following the incubation period. For the aforementioned assessments, incubation was performed at 37° C. in 5% CO2 for 30 minutes and cells were harvested in 2.5% trypsin-EDTA with serum-containing medium. Cells were immediately analyzed with a Guava EasyCyte Mini employing the Guava Express Plus program (Guava Technologies).

[4] = test system: human cardiac fibroblasts; experiment: Mitochondrial respiration, Seahorse XF24 Bioanalyzer; assay type: cell-based; details: mito-Q during NRTI exposure
Protocol: Cell culture experiments utilizing NRTIs were of the following design. Cultures of either human lung or cardiac fibroblasts were cultivated according to standard culture protocols for these cells (Cristofalo, et al., Journal of Tissue Culture Methods 1980, 6:117-121). Parallel sets of cultures were maintained in normal growth media or in normal growth media with the addition of 1 nM rapamycin. Cultures were maintained with 1 nM rapamycin (Enzo Biologicals) for two weeks before exposure to NRTIs. […] Mitochondrial measurements, bioanalyzer measurements, immunoblotting for protein expression and phosphorylation status, and assays for senescence were performed at the end of this 7-day period. Mitochondrial function was measured using the XF cell mito stress test kit on a Seahorse XF24 Bioanalyzer (Seahorse Bioscience). Cells were seeded at a density of 15,000 cells per well in an XF24 microplate. Following acquisition, results were normalized based upon 10^6 cells counted using a Guava EasyCyte Mini (Millipore), where applicable. […] Respiration rates and proton leak were assessed as outlined in published methods (Hill, et al., Biological chemistry 2012, 393:1485-1512). Mitochondrial respiration was calculated based upon oxygen consumption rate measurements in triplicates from cells seeded in at least quadruplicates. Basal respiration represents the initial oxygen consumption rate measurements and maximal respiration represents the oxygen consumption rate measurements following FCCP addition. ATP-linked respiration is represented as the oligomycin-sensitive oxygen change to basal oxygen consumption rate. Proton leak represents the oligmycin insensitive oxygen consumption rate. […] All data was normalized to cell number by counting cells in each well at the completion of the mitochondrial assessments.

[5] = test system: human cardiac fibroblasts; experiment: Immunoblot of senescence markers (p53, p21, p16, lamin B1, IL-6); assay type: cell-based; details: ROS-reducing intervention during NRTI exposure, no rapamycin
Protocol: as §1, §2
Cell protein extracts were prepared by extracting with radioimmunoprecipitation assay (RIPA) buffer containing a protease inhibitor cocktail (Sigma-Aldrich) and phosphatase inhibitors, NaF and sodium orthovanadate. Protein concentration was quantified using a bicinchoninic acid (BCA) assay (Pierce Biotechnology). […] For co-immunoprecipitation, cell protein extracts were prepared in HNTG buffer containing a protease inhibitor cocktail and quantified using BCA assay. […]

[6] = test system: human cardiac fibroblasts; experiment: Senescence-associated beta-galactosidase detection; assay type: cell-based; details: ROS-reducing intervention during NRTI exposure, no rapamycin
Protocol: as §1
Assessment of SA-β-gal activity was performed by plating cells following respective treatments at low density (0.5×10^4/cm^2) to prevent false positive staining known to occur in high density cultures. […] Following incubation, cells were washed three times with PBS and at least 500 cells were counted for each sample in triplicates. Positive cells (blue cells) were expressed as a percentage of total cells.

human fibroblasts = experiment: Ethidium bromide mitochondrial stress in human fibroblasts; details: exposure to ethidium bromide
From the text: Human fibroblasts were exposed to ethidium bromide for 7 days and cell viability measured at that time.

[7] = agent added to NRTI-exposed cardiac fibroblasts
[8] = replicative senescent cardiac fibroblasts
[9] = serum-free 48 hours, exposure 2 hours, 1 to 400 μM

CC(C)CCN1c2nc(Nc3cc(F)c(O)c(F)c3)ncc2N(C)C(=O)C1C (stereo not drawn) [BI-D1870]
ribosomal S6 phosphorylation in cells exposed to NRTIs [1, 7]: greatest impact
phosphorylated MDM2 in senescent fibroblasts [2, 8]: reduced
ribosomal S6 phosphorylation in senescent fibroblasts [2, 8]: reduced

O=C1Nc2ccc(I)cc2/C1=C/c1cc(Br)c(O)c(Br)c1 [GW5047]
ribosomal S6 phosphorylation in cells exposed to NRTIs [1, 7]: some decrease

COC1=C(OC)C(=O)C(CCCCCCCCCC[P+](c2ccccc2)(c2ccccc2)c2ccccc2)=C(C)C1=O [Mito-Q]
mitochondrial ROS following exposure to NRTIs [3]: ameliorated
mitochondrial ROS following exposure to NRTIs ([3]; listed as mito-Q): lower level
NRTI-induced increase in basal respiration, ATP-linked respiration and proton leak [4]: partially alleviated
maximal respiration [4]: less affected
increase in senescence-associated proteins (p53, p21, p16) following NRTI exposure [5]: ameliorated
percentage of cells positive for SA-β-gal staining [6]: reduced
MDM2 phosphorylation in cells exposed to NRTIs [1, 7]: reduced
ribosomal S6 phosphorylation in cells exposed to NRTIs [1, 7]: reduced

CCc1cncnc1N1CCN(Cc2nc3ccc(C(F)(F)F)cc3[nH]2)CC1 [PF-4708671]
MDM2 phosphorylation in cells exposed to NRTIs [1, 7]: inhibited
ribosomal S6 phosphorylation in cells exposed to NRTIs [1, 7]: inhibited

C[S+]([O-])c1ccc(-c2nc(-c3ccncc3)c(-c3ccc(F)cc3)[nH]2)cc1 (stereo not drawn) [SB-203580]
MDM2 phosphorylation in cells exposed to NRTIs [1]: no effect
ribosomal S6 phosphorylation in cells exposed to NRTIs [1]: no effect

N#CC(=C(/N)Sc1ccccc1N)/C(C#N)=C(\N)Sc1ccccc1N [U0126]
ribosomal S6 phosphorylation in cells exposed to NRTIs [2]: some decrease

COc1cc(C(C)=O)ccc1O [apocyanin]
ribosomal S6 phosphorylation in cells exposed to NRTIs [1, 7]: did not prevent the increase

CC[n+]1c(-c2ccccc2)c2cc(N)ccc2c2ccc(N)cc21 [ethidium bromide]
mitochondrial network (human fibroblasts): destroyed

OO [hydrogen peroxide]
ribosomal S6 and MDM2 phosphorylation at the lower concentrations ([2]; serum-free 48 hours, exposure 2 hours): increased
concentration of maximal activation of ribosomal S6 and MDM2 phosphorylation [2, 9]: 50 µM
concentrations at which ribosomal S6 and MDM2 phosphorylation are inhibited [2, 9]: above 100 μM

C=C(C)[C@H]1Cc2c(ccc3c2O[C@@H]2COc4cc(OC)c(OC)cc4[C@@H]2C3=O)O1 [rotenone]
concentration of sharp inhibition of S6 phosphorylation ([2]; serum deprived cardiac fibroblasts, 16 hours): 50 nM
S6 phosphorylation at nanomolar concentrations ([2]; serum deprived cardiac fibroblasts, 16 hours, 1 to 50 nM): increased
